{"source": "ChEMBL document CHEMBL3621157", "about": "“Design, synthesis and biological evaluation of novel 1,2,4-triazolo and 1,2,4-triazino[4,3-a]quinoxalines as potential anticancer and antimicrobial agents” (2015)", "format_in_all_cases": "functional", "key": {"PC-3": {"tested_on": "PC-3", "assay": "Growth inhibition of human PC3 cells incubated for 48 hrs by sulforhodamine B assay", "conditions": "PC-3, 48 h"}, "DU-145": {"tested_on": "DU-145", "assay": "Growth inhibition of human DU145 cells incubated for 48 hrs by sulforhodamine B assay", "conditions": "DU-145, 48 h"}, "MCF7": {"tested_on": "MCF7", "assay": "Growth inhibition of human MCF7 cells incubated for 48 hrs by sulforhodamine B assay", "conditions": "MCF7, 48 h"}, "MDA-MB-231": {"tested_on": "MDA-MB-231", "assay": "Growth inhibition of human MDA-MB-231 cells incubated for 48 hrs by sulforhodamine B assay", "conditions": "MDA-MB-231, 48 h"}, "[1]": {"assay": "Growth inhibition of human Hs 578T cells incubated for 48 hrs by sulforhodamine B assay"}, "Staphylococcus aureus [2]": {"tested_on": "Staphylococcus aureus", "assay": "Antimicrobial activity against Staphylococcus aureus DSM 1104 incubated at 37 degC for 24 hrs by cup diffusion method"}, "Bacillus subtilis": {"tested_on": "Bacillus subtilis", "assay": "Antimicrobial activity against Bacillus subtilis ATCC 6633 incubated at 37 degC for 24 hrs by cup diffusion method"}, "Candida albicans [3]": {"tested_on": "Candida albicans", "assay": "Antimicrobial activity against Candida albicans DSM 70014 incubated at 37 degC for 48 hrs by cup diffusion method"}, "Staphylococcus aureus [4]": {"tested_on": "Staphylococcus aureus", "assay": "Antimicrobial activity against Staphylococcus aureus DSM 1104 incubated for 24 hrs followed by transfer of colonies to Muller-Hinton agar plate and measured after 18 hrs by two-fold serial broth dilution method"}, "Pseudomonas aeruginosa": {"tested_on": "Pseudomonas aeruginosa", "assay": "Antimicrobial activity against Pseudomonas aeruginosa ATCC 10145 incubated for 24 hrs by two-fold serial broth dilution method", "conditions": "ATCC 10145, 24 h"}, "Escherichia coli": {"tested_on": "Escherichia coli", "assay": "Antimicrobial activity against Escherichia coli ATCC 11775 incubated for 24 hrs followed by transfer of colonies to Muller-Hinton agar plate and measured after 18 hrs by two-fold serial broth dilution method"}, "Candida albicans [5]": {"tested_on": "Candida albicans", "assay": "Antimicrobial activity against Candida albicans DSM 70014 incubated for 48 hrs followed by transfer of colonies to Muller-Hinton agar plate and measured after 18 hrs by two-fold serial broth dilution method"}, "HL-60(TB) [6]": {"tested_on": "HL-60(TB)", "assay": "Growth inhibition of human HL-60(TB) cells at 10 uM incubated for 48 hrs by sulforhodamine B assay", "conditions": "HL-60, 48 h, read-out: GI"}, "[7]": {"assay": "Growth inhibition of human RPMI8226 cells at 10 uM incubated for 48 hrs by sulforhodamine B assay", "conditions": "RPMI-8226, 48 h, read-out: GI"}, "[8]": {"assay": "Growth inhibition of human EKVX cells at 10 uM incubated for 48 hrs by sulforhodamine B assay", "conditions": "read-out: GI"}, "HCT-15": {"tested_on": "HCT-15", "assay": "Growth inhibition of human HCT15 cells at 10 uM incubated for 48 hrs by sulforhodamine B assay", "conditions": "HCT-15, 48 h, read-out: GI"}, "CCRF-CEM": {"tested_on": "CCRF-CEM", "assay": "Growth inhibition of human CCRF-CEM cells incubated for 48 hrs by sulforhodamine B assay"}, "HL-60(TB) [9]": {"tested_on": "HL-60(TB)", "assay": "Growth inhibition of human HL-60(TB) cells incubated for 48 hrs by sulforhodamine B assay", "conditions": "HL-60, 48 h"}, "K562": {"tested_on": "K562", "assay": "Growth inhibition of human K562 cells incubated for 48 hrs by sulforhodamine B assay", "conditions": "K562, 48 h"}, "SR": {"tested_on": "SR", "assay": "Growth inhibition of human SR cells incubated for 48 hrs by sulforhodamine B assay"}, "A549": {"tested_on": "A549", "assay": "Growth inhibition of human A549 cells incubated for 48 hrs by sulforhodamine B assay", "conditions": "A549, 48 h"}, "HOP-62": {"tested_on": "HOP-62", "assay": "Growth inhibition of human HOP62 cells incubated for 48 hrs by sulforhodamine B assay", "conditions": "HOP-62, 48 h"}, "[10]": {"assay": "Growth inhibition of human HOP92 cells incubated for 48 hrs by sulforhodamine B assay", "conditions": "HOP-92, 48 h"}, "NCI-H226": {"tested_on": "NCI-H226", "assay": "Growth inhibition of human NCI-H226 cells incubated for 48 hrs by sulforhodamine B assay", "conditions": "NCI-H226, 48 h"}, "NCI-H522": {"tested_on": "NCI-H522", "assay": "Growth inhibition of human NCI-H522 cells incubated for 48 hrs by sulforhodamine B assay", "conditions": "NCI-H522, 48 h"}, "[11]": {"assay": "Growth inhibition of human COLO205 cells incubated for 48 hrs by sulforhodamine B assay", "conditions": "COLO 205, 48 h"}, "SW-620": {"tested_on": "SW-620", "assay": "Growth inhibition of human SW620 cells incubated for 48 hrs by sulforhodamine B assay", "conditions": "SW-620, 48 h"}, "[12]": {"assay": "Growth inhibition of human SF295 cells incubated for 48 hrs by sulforhodamine B assay", "conditions": "SF-295, 48 h"}, "[13]": {"assay": "Growth inhibition of human SF539 cells incubated for 48 hrs by sulforhodamine B assay", "conditions": "SF-539, 48 h"}, "SNB-19": {"tested_on": "SNB-19", "assay": "Growth inhibition of human SNB19 cells incubated for 48 hrs by sulforhodamine B assay", "conditions": "SNB-19, 48 h"}, "SNB-75": {"tested_on": "SNB-75", "assay": "Growth inhibition of human SNB75 cells incubated for 48 hrs by sulforhodamine B assay", "conditions": "SNB-75, 48 h"}, "Malme-3M": {"tested_on": "Malme-3M", "assay": "Growth inhibition of human MALME-3M cells incubated for 48 hrs by sulforhodamine B assay"}, "M14": {"tested_on": "M14", "assay": "Growth inhibition of human M14 cells incubated for 48 hrs by sulforhodamine B assay", "conditions": "M14, 48 h"}, "SK-MEL-2": {"tested_on": "SK-MEL-2", "assay": "Growth inhibition of human SK-MEL-2 cells incubated for 48 hrs by sulforhodamine B assay", "conditions": "SK-MEL-2, 48 h"}, "SK-MEL-5": {"tested_on": "SK-MEL-5", "assay": "Growth inhibition of human SK-MEL-5 cells incubated for 48 hrs by sulforhodamine B assay", "conditions": "SK-MEL-5, 48 h"}, "UACC-257": {"tested_on": "UACC-257", "assay": "Growth inhibition of human UACC257 cells incubated for 48 hrs by sulforhodamine B assay", "conditions": "UACC-257, 48 h"}, "OVCAR-3": {"tested_on": "OVCAR-3", "assay": "Growth inhibition of human OVCAR3 cells incubated for 48 hrs by sulforhodamine B assay", "conditions": "OVCAR-3, 48 h"}, "OVCAR-4": {"tested_on": "OVCAR-4", "assay": "Growth inhibition of human OVCAR4 cells incubated for 48 hrs by sulforhodamine B assay", "conditions": "OVCAR-4, 48 h"}, "ACHN": {"tested_on": "ACHN", "assay": "Growth inhibition of human ACHN cells incubated for 48 hrs by sulforhodamine B assay"}}, "data": [{"compound": "Clc1ccccc1-c1nnc2c(Cc3ccccc3)nc3ccccc3n12", "values": [{"measurement": "GI50", "setting": "PC-3", "value": 5.19, "unit": "µM"}, {"measurement": "GI50", "setting": "DU-145", "value": 44.2, "unit": "µM"}, {"measurement": "GI50", "setting": "MCF7", "value": 22.2, "unit": "µM"}, {"measurement": "GI50", "setting": "MDA-MB-231", "value": 6.24, "unit": "µM"}, {"measurement": "GI50", "setting": "[1]", "value": 9.66, "unit": "µM"}, {"measurement": "inhibition zone (IZ)", "setting": "Staphylococcus aureus [2]", "value": 12, "unit": "mm"}, {"measurement": "inhibition zone (IZ)", "setting": "Bacillus subtilis", "value": 12, "unit": "mm"}, {"measurement": "inhibition zone (IZ)", "setting": "Candida albicans [3]", "value": 16, "unit": "mm"}, {"measurement": "MBC", "setting": "Staphylococcus aureus [4]", "value": 200, "unit": "µg/mL"}, {"measurement": "MIC", "setting": "Pseudomonas aeruginosa", "value": 50, "unit": "µg/mL"}, {"measurement": "MBC", "setting": "Escherichia coli", "value": 50, "unit": "µg/mL"}, {"measurement": "MFC", "setting": "Candida albicans [5]", "value": 200, "unit": "µg/mL"}, {"measurement": "inhibition of growth at 10 µM", "setting": "HL-60(TB) [6]", "value": 46.4, "unit": "%"}, {"measurement": "inhibition of growth at 10 µM", "setting": "[7]", "value": 63.8, "unit": "%"}, {"measurement": "inhibition of growth at 10 µM", "setting": "[8]", "value": 48.1, "unit": "%"}, {"measurement": "inhibition of growth at 10 µM", "setting": "HCT-15", "value": 55.4, "unit": "%"}, {"measurement": "GI50", "setting": "CCRF-CEM", "value": 7.11, "unit": "µM"}, {"measurement": "GI50", "setting": "HL-60(TB) [9]", "value": 32.5, "unit": "µM"}, {"measurement": "GI50", "setting": "K562", "value": 5.55, "unit": "µM"}, {"measurement": "GI50", "setting": "SR", "value": 3.91, "unit": "µM"}, {"measurement": "GI50", "setting": "A549", "value": 8.77, "unit": "µM"}, {"measurement": "GI50", "setting": "HOP-62", "value": 12.4, "unit": "µM"}, {"measurement": "GI50", "setting": "[10]", "value": 3.45, "unit": "µM"}, {"measurement": "GI50", "setting": "NCI-H226", "value": 9.96, "unit": "µM"}, {"measurement": "GI50", "setting": "NCI-H522", "value": 53.9, "unit": "µM"}, {"measurement": "GI50", "setting": "[11]", "value": 8.77, "unit": "µM"}, {"measurement": "GI50", "setting": "SW-620", "value": 43.4, "unit": "µM"}, {"measurement": "GI50", "setting": "[12]", "value": 12.3, "unit": "µM"}, {"measurement": "GI50", "setting": "[13]", "value": 24.2, "unit": "µM"}, {"measurement": "GI50", "setting": "SNB-19", "value": 27.8, "unit": "µM"}, {"measurement": "GI50", "setting": "SNB-75", "value": 6.12, "unit": "µM"}, {"measurement": "GI50", "setting": "Malme-3M", "value": 23.8, "unit": "µM"}, {"measurement": "GI50", "setting": "M14", "value": 36.7, "unit": "µM"}, {"measurement": "GI50", "setting": "SK-MEL-2", "value": 55.8, "unit": "µM"}, {"measurement": "GI50", "setting": "SK-MEL-5", "value": 5.9, "unit": "µM"}, {"measurement": "GI50", "setting": "UACC-257", "value": 34.3, "unit": "µM"}, {"measurement": "GI50", "setting": "OVCAR-3", "value": 21.7, "unit": "µM"}, {"measurement": "GI50", "setting": "OVCAR-4", "value": 8.01, "unit": "µM"}, {"measurement": "GI50", "setting": "ACHN", "value": 34.1, "unit": "µM"}]}]}
